Data from patent US11957783B2, “Topical immunosensitizers to treat viral and fungal infections” (Squarex, LLC, priority 2018, dated 2024).

What was measured:
Assay type in all cases: in vivo, human
Interleukin 2 = test: Plasma level of Interleukin 2; settings: for Interleukin 2 in plasma, group average / Interleukin 2 in plasma, number of subjects with undetectable levels: n = 12
Experimental: (§1) After a screening visit at which blood was drawn to test for IgG antibody against HSV-1 and subjects were interviewed for inclusion/exclusion criteria, selected subjects returned for blood draws on day 1. After the blood draw on day 1, subjects in group A only were dosed with SADBE. A petrolatum donut was applied with a cotton swab to form about a 1 cm diameter donut on skin on the inner aspect of the upper arm. Then a separate cotton swab was dipped in a 2% SADBE solution (w/v) in DMSO, and the swab was then used to apply about 10-20 mg of solution over about a 1 cm diameter circle within the petrolatum donut. Immediately after application, the application site was covered with TEGADERM. Subjects were advised to remove the TEGADERM and rinse and wipe the spot three hours later. The group A subjects then returned for blood draws on days 15 and 57 and were queried about adverse events on those dates.
(§2) At this study visit where blood was drawn it was tested for blood cell counts, various cytokine levels, and anti-HSV-1 IgG quantitative levels.
(§3) All subjects had detectable IL-2 and the large majority had detectable IL-2 receptor.

[1] = test system: Interleukin 2 Receptor (CD25); test: Plasma level of Interleukin 2 Receptor (CD25); settings: for Interleukin 2 Receptor (CD25) in plasma, number of subjects with undetectable levels / Interleukin 2 Receptor (CD25) in plasma, group average: n = 12; for Interleukin 2 Receptor (CD25) in plasma, number of subjects with undetectable levels: lower limit of detection 9.19 pg/ml; for Interleukin 2 Receptor (CD25) in plasma, group average: undetectable counted as 9.19 pg/ml
Experimental: as §1, §2, §3
For IL2R the detection limit was 9.19 pg/ml and the number of subjects who measured undetectable are listed. If a subject's IL2R was undetectable, the value of 9.19 pg/ml was used for that subject in detecting the average of the group. No subjects had undetectable IL2.

herpes labialis outbreak = test: Clinical trial of herpes labialis outbreaks after sensitization dose (Example 2)
Experimental: The median time to the next outbreak for the placebo group was 40 days vs more than 122 days for the 2.0% SADBE group, which difference was highly significant (P=0.009) (Palli 2017). SADBE is a topical immunosensitizer that induces a delayed-type hypersensitivity response and is commonly used in the treatment of verruca vulgaris and alopecia areata (Lee 1999; Silverberg 2000, Rokhshar 1998). […]
(p<0.05). The average days to the first outbreak after the sensitization dose was also measured. […] The A: placebo, 0% SADBE in DMSO.

[2] = Rash (erythema) from the sensitization dose (Example 2); settings: pooled treatment groups B and C; placebo 2 of 13
Excerpt: Visit 1: Upon entering the study, patients are sensitized to squaric acid dibutyl ester (SADBE) by dipping a cotton-tipped swab in a 2% solution of SADBE in DMSO and swabbing a 1 cm^2 area on the forearm. Participants are told then to wait at least 2 weeks for their first treatment.

CCCCOc1c(OCCCC)c(=O)c1=O [SADBE, 3,4-Dibutoxy-3-cyclobutene-1,2-dione]
Interleukin 2 in plasma, Sample/A1 (Interleukin 2; A15 / group A day 1): 0.96
Interleukin 2 in plasma, Sample minus A1 (Interleukin 2; A15 minus group A day 1): -0.54 pg/mL
Interleukin 2 in plasma, Sample/A1 (Interleukin 2; A57 / group A day 1): 0.84
Interleukin 2 in plasma, Sample minus A1 (Interleukin 2; A57 minus group A day 1): -2.13 pg/mL
Interleukin 2 in plasma, group average (Interleukin 2; group A day 15 (A15)): 12.90 pg/mL
Interleukin 2 in plasma, number of subjects with undetectable levels (Interleukin 2; group A day 15 (A15)): 0
Interleukin 2 in plasma, group average (Interleukin 2; group A day 57 (A57)): 11.30 pg/mL
Interleukin 2 in plasma, number of subjects with undetectable levels (Interleukin 2; group A day 57 (A57)): 0
Interleukin 2 Receptor (CD25) in plasma, Sample/A1 ([1]; A15 / group A day 1): 1.23
Interleukin 2 Receptor (CD25) in plasma, Sample minus A1 ([1]; A15 minus group A day 1): 167.04 pg/mL
Interleukin 2 Receptor (CD25) in plasma, Sample/A1 ([1]; A57 / group A day 1): 0.96
Interleukin 2 Receptor (CD25) in plasma, Sample minus A1 ([1]; A57 minus group A day 1): -26.24 pg/mL
Interleukin 2 Receptor (CD25) in plasma, number of subjects with undetectable levels ([1]; group A day 15 (A15)): 1
Interleukin 2 Receptor (CD25) in plasma, group average ([1]; group A day 15 (A15)): 899.81 pg/mL
Interleukin 2 Receptor (CD25) in plasma, number of subjects with undetectable levels ([1]; group A day 57 (A57)): 0
Interleukin 2 Receptor (CD25) in plasma, group average ([1]; group A day 57 (A57)): 706.52 pg/mL
proportion who had a first outbreak between 30 and 120 days after receiving the sensitization dose (herpes labialis outbreak; pooled groups B and C (2% SADBE in DMSO sensitization), placebo group A 4 of 14): 5 of 26
median time to the next outbreak, outbreaks in the 21 days after the sensitization dose excluded (herpes labialis outbreak; treatment group, counting from day of sensitization dose, placebo 56 days): greater than 120 days
median time to the next outbreak (herpes labialis outbreak; treatment group, from sensitization dose (2% SADBE), placebo 42 days, log rank P 0.009): greater than 120 days
median time to the next outbreak, counting from day 21 after the sensitization dose (herpes labialis outbreak; treatment group, placebo 35 days): greater than 99 days
subsequent outbreak during the study time (herpes labialis outbreak; treatment groups B and C receiving 2% SADBE in DMSO as sensitization dose): usually did not have a subsequent outbreak during the study time
median time to next HSV outbreak in treated patients without visible erythema at application site (herpes labialis outbreak; versus placebo): longer median time to the next HSV outbreak than patients receiving placebo
subjects with rash (erythema) from the sensitization dose [2]: 17 of 28
